Experimental data from publication PMC11322164 (Scientific Reports, 2024).

System: PAO1
Assay: Salt sensitivity assay
Assay type: cell-based, P. aeruginosa

MIC (CaCl2 (2.5 mM)): 2 µM
MIC (FeCl3 (4 μM)): 1 µM
MIC (KCl (4.5 mM)): 1 µM
MIC (MgCl2 (1 mM)): 1 µM
MIC (NH4Cl (6 μM)): 1 µM
MIC (NaCl (150 mM)): 0.5 µM
MIC (ZnCl2 (8 mM)): 1 µM
Substance: Polymyxin B
MBC (CaCl2 (2.5 mM)): 2 µM
MBC (FeCl3 (4 μM)): 1 µM
MBC (KCl (4.5 mM)): 1 µM
MBC (MgCl2 (1 mM)): 1 µM
MBC (NH4Cl (6 μM)): 1 µM
MBC (NaCl (150 mM)): 0.5 µM
MBC (ZnCl2 (8 mM)): 1 µM
